Results: patent US11806342B2, “Diiodohydroxyquinoline for the treatment of clostridium difficile infection” (Purdue Research Foundation, priority 2019, dated 2023)
Converted amounts (≈) assume the structure as drawn.

Legend:
Format in all cases: cell-based, Clostridium difficile
C. difficile ATCC 43255 [1] = test: Initial screening of antiparasitic drugs, broth microdilution MIC; conditions: Clostridioides difficile, ATCC43255; initial screening, C. difficile ATCC 43255; read-out: MIC
C. difficile ATCC 43598 = test: MIC and MBC, broth microdilution; conditions: Clostridioides difficile, ATCC43598, C. difficile ATCC 43598
Procedure: (§1) MIC50 and MIC90 are the minimum concentration of each agent that inhibited growth of 50% and 90% of the tested isolates, respectively. The minimum bactericidal concentration (MBC) of these drugs was tested by plating 5 μL from wells with no growth onto BHIS agar plates. The MBC was categorized as the lowest concentration that reduced bacterial growth by 99.9% MIC50 and MIC90 are the minimum concentration of each agent that inhibited the growth of 50% and 90% of the tested isolates, respectively. The minimum bactericidal concentration (MBC) of these drugs was tested by plating 5 μL from wells with no growth onto BHIS agar plates. The MBC was categorized as the lowest concentration that reduced bacterial growth by 99.9% [29-31].

C. difficile ATCC 700057 = test: MIC and MBC, broth microdilution; conditions: Clostridioides difficile, ATCC700057, C. difficile ATCC 700057
Procedure: as §1

C. difficile ATCC 9689 = test: MIC and MBC, broth microdilution; conditions: Clostridioides difficile, ATCC9689, C. difficile ATCC 9689
Procedure: as §1

[2] = test system: C. difficile ATCC BAA-1870; test: MIC and MBC, broth microdilution; conditions: Clostridioides difficile, ATCCBAA1870, C. difficile ATCC BAA-1870
Procedure: as §1

C. difficile HM-89 = test: MIC and MBC, broth microdilution; conditions: Clostridioides difficile, HM89, C. difficile HM-89
Procedure: as §1

C. difficile I1 = test: MIC and MBC, broth microdilution; conditions: Clostridioides difficile, C. difficile I1
Procedure: as §1

C. difficile I2 = test: MIC and MBC, broth microdilution; conditions: Clostridioides difficile, C. difficile I2
Procedure: as §1

C. difficile I4 = test: MIC and MBC, broth microdilution; conditions: Clostridioides difficile, C. difficile I4
Procedure: as §1

C. difficile NR-49277 [3] = test: MIC and MBC, broth microdilution; conditions: Clostridioides difficile, NR49277, C. difficile NR-49277
Procedure: as §1

C. difficile NR-49281 = test: MIC and MBC, broth microdilution; conditions: Clostridioides difficile, NR49281, C. difficile NR-49281
Procedure: as §1

C. difficile NR-49284 = test: MIC and MBC, broth microdilution; conditions: Clostridioides difficile, NR49284, C. difficile NR-49284
Procedure: as §1

C. difficile NR-49286 = test: MIC and MBC, broth microdilution; conditions: Clostridioides difficile, NR49286, C. difficile NR-49286
Procedure: as §1

C. difficile NR-49290 = test: MIC and MBC, broth microdilution; conditions: Clostridioides difficile, NR49290, C. difficile NR-49290
Procedure: as §1

C. difficile P11 = test: MIC and MBC, broth microdilution; conditions: Clostridioides difficile, C. difficile P11
Procedure: as §1

C. difficile P13 = test: MIC and MBC, broth microdilution; conditions: Clostridioides difficile, C. difficile P13
Procedure: as §1

C. difficile P1 = test: MIC and MBC, broth microdilution; conditions: Clostridioides difficile, C. difficile P1
Procedure: as §1

C. difficile P24 = test: MIC and MBC, broth microdilution; conditions: Clostridioides difficile, C. difficile P24
Procedure: as §1

C. difficile P2 = test: MIC and MBC, broth microdilution; conditions: Clostridioides difficile, C. difficile P2
Procedure: as §1

C. difficile P7 = test: MIC and MBC, broth microdilution; conditions: Clostridioides difficile, C. difficile P7
Procedure: as §1

C. difficile P8 = test: MIC and MBC, broth microdilution; conditions: Clostridioides difficile, C. difficile P8
Procedure: as §1

C. difficile ATCC 43255 [4] = test: Toxin A and B production inhibition, ELISA; conditions: 8 hours
Procedure: (§2) To investigate DIHQs toxin production inhibitory activity, toxin A and toxin B levels were measured as described previously. […] An aliquot from each tube was diluted and plated on BHIS agar plates and incubated anaerobically at 37° C. for 24 hours to detect the bacterial count. The total concentration of C. difficile toxin A and B was measured in the supernatant of each tube using enzyme linked immunosorbent assay (ELISA) kit (tgc BIOMICS, Dunwoody, GA) following the manufacturer's instructions. The (OD450-OD620) values, corresponding to the toxin concentration, were measured for DIHQ and control drugs.

[5] = test system: C. difficile ATCC BAA-1870; test: Toxin A and B production inhibition, ELISA; conditions: 8 hours
Procedure: as §2

C. difficile NR-49277 [6] = test: Toxin A and B production inhibition, ELISA; conditions: 8 hours
Procedure: as §2

`Oc1c(I)cc(I)c2cccnc12` [DIHQ, 5,7-diiodoquinolin-8-ol] showed an MIC (C. difficile ATCC 43255 [1]) of 0.5 µg/mL (≈ 1.26 µM), an MBC (C. difficile ATCC 43598; read-out: MBC) of 1 µg/mL (≈ 2.52 µM) and an MIC (C. difficile ATCC 43598; read-out: MIC) of 1 µg/mL (≈ 2.52 µM). It also gave an MBC (C. difficile ATCC 700057; read-out: MBC) of 0.5 µg/mL (≈ 1.26 µM), an MIC (C. difficile ATCC 700057; read-out: MIC) of 0.5 µg/mL (≈ 1.26 µM) and an MBC (C. difficile ATCC 9689; read-out: MBC) of 0.25 µg/mL (≈ 0.63 µM). The MIC (C. difficile ATCC 9689; read-out: MIC) was 0.125 µg/mL (≈ 0.315 µM), the MBC ([2]; read-out: MBC) was 1 µg/mL (≈ 2.52 µM) and the MIC ([2]; read-out: MIC) was 1 µg/mL (≈ 2.52 µM). The MBC (C. difficile HM-89; read-out: MBC) was 1 µg/mL (≈ 2.52 µM), the MIC (C. difficile HM-89; read-out: MIC) was 1 µg/mL (≈ 2.52 µM) and the MBC (C. difficile I1; read-out: MBC) was 1 µg/mL (≈ 2.52 µM). It also gave an MIC (C. difficile I1; read-out: MIC) of 1 µg/mL (≈ 2.52 µM), an MBC (C. difficile I2; read-out: MBC) of 2 µg/mL (≈ 5.04 µM) and an MIC (C. difficile I2; read-out: MIC) of 2 µg/mL (≈ 5.04 µM). It also gave an MBC (C. difficile I4; read-out: MBC) of 1 µg/mL (≈ 2.52 µM), an MIC (C. difficile I4; read-out: MIC) of 1 µg/mL (≈ 2.52 µM) and an MBC (C. difficile NR-49277 [3]; read-out: MBC) of 0.5 µg/mL (≈ 1.26 µM). For the same molecule, the MIC (C. difficile NR-49277 [3]; read-out: MIC) was 0.5 µg/mL (≈ 1.26 µM), the MBC (C. difficile NR-49281; read-out: MBC) was 0.25 µg/mL (≈ 0.63 µM) and the MIC (C. difficile NR-49281; read-out: MIC) was 0.25 µg/mL (≈ 0.63 µM). It also gave an MBC (C. difficile NR-49284; read-out: MBC) of 0.125 µg/mL (≈ 0.315 µM), an MIC (C. difficile NR-49284; read-out: MIC) of 0.125 µg/mL (≈ 0.315 µM) and an MBC (C. difficile NR-49286; read-out: MBC) of 0.5 µg/mL (≈ 1.26 µM). For the same molecule, the MIC (C. difficile NR-49286; read-out: MIC) was 0.25 µg/mL (≈ 0.63 µM), the MBC (C. difficile NR-49290; read-out: MBC) was 0.5 µg/mL (≈ 1.26 µM) and the MIC (C. difficile NR-49290; read-out: MIC) was 0.25 µg/mL (≈ 0.63 µM). The MBC (C. difficile P11; read-out: MBC) was 0.25 µg/mL (≈ 0.63 µM), the MIC (C. difficile P11; read-out: MIC) was 0.25 µg/mL (≈ 0.63 µM) and the MBC (C. difficile P13; read-out: MBC) was 0.5 µg/mL (≈ 1.26 µM). It also gave an MIC (C. difficile P13; read-out: MIC) of 0.5 µg/mL (≈ 1.26 µM), an MBC (C. difficile P1; read-out: MBC) of 0.5 µg/mL (≈ 1.26 µM) and an MIC (C. difficile P1; read-out: MIC) of 0.5 µg/mL (≈ 1.26 µM). The MBC (C. difficile P24; read-out: MBC) was 2 µg/mL (≈ 5.04 µM), the MIC (C. difficile P24; read-out: MIC) was 1 µg/mL (≈ 2.52 µM) and the MBC (C. difficile P2; read-out: MBC) was 0.25 µg/mL (≈ 0.63 µM). The MIC (C. difficile P2; read-out: MIC) was 0.25 µg/mL (≈ 0.63 µM), the MBC (C. difficile P7; read-out: MBC) was 0.5 µg/mL (≈ 1.26 µM) and the MIC (C. difficile P7; read-out: MIC) was 0.5 µg/mL (≈ 1.26 µM). The MBC (C. difficile P8; read-out: MBC) was 0.125 µg/mL (≈ 0.315 µM), the MIC (C. difficile P8; read-out: MIC) was 0.125 µg/mL (≈ 0.315 µM) and the “inhibition of total toxin production” value (C. difficile ATCC 43255 [4]; C. difficile ATCC 43255, ¼×MIC) was about 8%. The “inhibition of total toxin production” value (C. difficile ATCC 43255 [4]; C. difficile ATCC 43255, ½×MIC) was about 28.5%, the “inhibition of total toxin production” value ([5]; C. difficile ATCC BAA-1870, ¼×MIC) was 17.8% and the “inhibition of total toxin production” value ([5]; C. difficile ATCC BAA-1870, ½×MIC) was 27%. The “inhibition of total toxin production” value (C. difficile NR-49277 [6]; C. difficile NR-49277, ¼×MIC) was about 31.8% and the “inhibition of total toxin production” value (C. difficile NR-49277 [6]; C. difficile NR-49277, ½×MIC) was about 38.9%.
